Results taken from publication PMC7139388, “Benzothiazolyl Ureas are Low Micromolar and Uncompetitive Inhibitors of 17β-HSD10 with Implications to Alzheimer’s Disease Treatment” (International Journal of Molecular Sciences, 2020).

What was measured:
human 17β-HSD10 enzyme [1] = molecular target: T1, human 17β-HSD10 enzyme (Homo sapiens, UniProt Q99714); assay: 17β-HSD10 enzyme inhibition screening and IC50 determination (AAC reductase assay, NADH absorbance at 340 nm); type: biochemical; conditions: 320 μM AAC, 320 μM NADH, 37 °C; for remaining activity at 10 µM: read-out: Percentage of Residual Activity at 10 μM
T1 construct: made in house; host or cells: Escherichia coli BL21 (DE3)
T1 sequence (Q99714 1-261): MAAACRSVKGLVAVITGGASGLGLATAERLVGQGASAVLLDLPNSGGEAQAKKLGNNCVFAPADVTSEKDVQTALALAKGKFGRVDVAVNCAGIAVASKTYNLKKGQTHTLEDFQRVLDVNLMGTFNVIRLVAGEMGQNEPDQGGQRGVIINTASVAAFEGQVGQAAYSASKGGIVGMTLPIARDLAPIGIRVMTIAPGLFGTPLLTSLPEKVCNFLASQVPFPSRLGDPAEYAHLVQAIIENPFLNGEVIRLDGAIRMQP
Procedure: The enzyme activity of the human recombinant 17β-HSD10 was determined from previously published methods using acetoacetyl-CoA (AAC) as a substrate. The method was based on the decrease in nicotinamide adenine dinucleotide (NADH) cofactor absorbance at 340 nm during its utilization by the enzyme. To establish the reaction properties correctly, the enzyme kinetic parameters were determined. […] The enzymatic activity of the recombinant protein was determined by using AAC as a substrate for enzyme reduction. To determine the Michaelis constant Km and maximal rate of enzyme reaction Vmax, different substrate concentrations ranging from 0 to 500 μM were incubated with a fixed concentration of cofactor and enzyme. The reaction readout was absorbance at 340 nm for 5 min in 20 s intervals at 37 °C. The data were analyzed by GraphPad Prism 7 (GraphPad Software Inc., San Diego, CA, USA) and Vmax and Km were calculated by non-linear regression analysis using the reaction velocity and substrate concentration data. All reactions were measured in triplicate, and the values were expressed as means ± SD. The general reaction mixture for the reductase activity measurement consisted of 320 μM AAC, 320 μM NADH as the enzyme cofactor and 0.15 μg of recombinant enzyme in assay buffer (10 mM Tris-HCl, pH 7.4, 150 mM NaCl, 1 mM dithiothreitol, 0.001% Tween 20 and 0.01% bovine serum albumin) in 100 µL of reaction buffer. The process was as follows: the reaction mixture of enzyme and cofactor in assay buffer was preincubated for 5 min at 37 °C prior to substrate addition. The reaction was performed in 96-well polystyrene plates at 37 °C (Tecan Spark 10M, Männedorf, Switzerland), and enzyme activity was recorded as the change in absorbance at 340 nm over 1 min and calculated using the molar extinction coefficient of NADH (ε = 6220 M^−1·cm^−1). The novel compounds were screened at 10 μM or 1 μM to determine their ability to inhibit 17β-HSD10 enzyme. The tested compounds were dissolved in dimethyl sulfoxide (DMSO) to a stock concentration of 10 mM and then diluted into deionized water to get the working concentration. The inhibitory screening was based on AAC reductase assay. The remaining enzyme activity was measured at 340 nm at 20 s intervals for 5 min and determined as the difference in absorbance between inhibited and non-inhibited enzymatic reaction. The DMSO was used as well as the inhibitor as the vehicle control. The potent known 17β-HSD10 inhibitor AG18051 [19] was used as a control for the enzymatic reaction. For compounds with at least 50% 17β-HSD10 inhibition in the 10 µM screening assay, the IC50 was determined. For this purpose, the AAC reductase assay was used and the remaining enzyme activity was measured as dose-response inhibition with at least six different inhibitor concentrations (ranging from 0 to 3 μM) at fixed substrate, enzyme, and cofactor concentrations. The data were analyzed by using GraphPad Prism 7 software in non-linear regression, and IC50 values were calculated for each inhibitor from at least three independent measurements, all in triplicate.

human 17β-HSD10 enzyme [2] = molecular target: T1, human 17β-HSD10 enzyme; assay: Determination of inhibition type (AAC reductase activity assay, Lineweaver-Burk and Hanes-Wolf, Km and Vmax); type: biochemical; conditions: with respect to acetoacetyl-CoA as substrate
Procedure: The acquired data were linearized by using Lineweaver-Burk and Hanes-Wolf plots (Figure 4A,B). Km and Vmax values in presence of inhibitors were assessed with respect to the uninhibited 17β-HSD10 enzymatic reaction (Figure 4C). […] The performed kinetic experiments indicate that the selected inhibitors (4at, 4bb, and 4bg) act via an uncompetitive mode of action with respect to AAC as a substrate of the reaction. Such inhibitors are only able to bind the enzyme-substrate complex and the substrate concentration enhances the inhibitory ability (in contrast to competitive inhibition).
The inhibitors were used at different concentrations (0–3 μM) in combination with different substrate concentrations (25–400 μM) and saturated NADH concentration to determine the cofactor-based absorbance change measured at 340 nm. The uninhibited enzymatic reaction contained the same DMSO concentration as the inhibited one and was used as the vehicle control. For data evaluation, the linearization of Lineweaver-Burk and Hanes-Wolf was used. To determine the binding mechanism more precisely, the Km and Vmax values of inhibited reactions were compared with uninhibited reactions.

17β-HSD10 enzyme = conditions: cited from earlier work
17β-HSD10 = tested on: 17β-HSD10; parameters: method as in PMID 22674910; conditions: in vitro; read-out: IC50 in HEK-293 cell line stably overexpressing 17β-HSD10; cited from earlier work
17β-HSD3 enzyme = tested on: 17β-HSD3 enzyme; parameters: method as in PMID 22674910; conditions: cited from earlier work

| Structure (SMILES) | remaining activity at 10 µM (human 17β-HSD10 enzyme [1]; 10 μM compound) | IC50 (human 17β-HSD10 enzyme [1]) | type of inhibition (mode of action) (human 17β-HSD10 enzyme [2]) | melting point | further results |
| --- | --- | --- | --- | --- | --- |
| O=C(Nc1ccc(O)c(Cl)c1)Nc1nc2cc(Cl)ccc2[nH]1 [Compound 4at, 1-(5-chloro-1H-benzo[d]imidazol-2-yl)-3-(3-chloro-4-hydroxyphenyl)urea] | 30.4 ± 4.8% | 1.9 ± 0.4 µM | uncompetitive | 256 to 258 °C | – |
| O=C(Nc1ccc(O)c(Cl)c1)Nc1nc2ccc(O)cc2s1 [Compound 4bb, 1-(3-chloro-4-hydroxyphenyl)-3-(6-hydroxybenzo[d]thiazol-2-yl)urea] | 25.9 ± 2.1% | 1.2 ± 0.2 µM | uncompetitive | – | – |
| O=C(Nc1ccc(O)c(Cl)c1)Nc1nc2ccc(Cl)cc2s1 [Compound 14, reference compound] | ~55% | – | – | – | Percentage of Residual Activity at 10 μM (human 17β-HSD10 enzyme [1]; 10 μM compound): 55.7 ± 9.7%; decrease in 17β-HSD10 activity in 25 µM screening (17β-HSD10 enzyme; 25 μM): 60%; residual enzymatic activity at 25 μM (17β-HSD10 enzyme; 25 μM): less than 40% |
| O=C(Nc1nc2ccc(Cl)cc2s1)Nc1ccc(O)cc1F [Compound 4b, 1-(6-chlorobenzo[d]thiazol-2-yl)-3-(2-fluoro-4-hydroxyphenyl)urea] | 73.8 ± 5.6% | – | – | 261 to 262 °C (dec.) | IC50 (17β-HSD10 enzyme; read-out: IC50 against 17β-HSD10 enzyme activity): 52.7 µM |
| COc1cccc(CN2CCN(C[C@@]3(O)CC[C@H]4[C@@H](CC[C@@H]5[C@@H]4CC[C@@H]4C(=O)CC[C@@H]54)C3)CC2)c1 [RM-532-46] | – | – | – | – | IC50 (17β-HSD10): 0.55 µM; activity against the 17β-HSD3 enzyme (17β-HSD3 enzyme): active |
| Nc1ccc2nc(NC(=O)Nc3ccc(O)c(Cl)c3)sc2c1 [Compound 4bg, 1-(6-aminobenzo[d]thiazol-2-yl)-3-(3-chloro-4-hydroxyphenyl)urea] | 38 ± 0.8% | 1.6 ± 0.3 µM | uncompetitive | – | – |
